Measured values published in patent publication US20050070437A1, “Herbicide combinations comprising specific sulfonamides” (Bayer CropScience GmbH, priority 2003, published 2005).

Experiments:
[1] = test system: Veronica hederifolia; test: Herbicidal action (field trials), visual scoring of harmful plant; format: in vivo; conditions: field trial, natural outdoor conditions; scored visually about 4 weeks after application vs untreated plots; mean of 2-4 plots; application rate g of active substance/hectare: A 5, B 25, C 50 (A + B 5 + 25; A + B + C 5 + 25 + 50)
Experimental: (§1) The seeds or rhizome pieces of the harmful plants and the useful plants were laid out or were present in the soil, and they were grown under natural outdoor conditions. Treatment with the active compounds or active compound combinations was carried out […] before and/or after the emergence of the plants, generally at the 2- to 4-leaf stage, in various dosages using a water application rate of 100 to 400 l/ha (converted).
(§2) After the application (about 4 weeks after the application), the effectiveness of the active compounds or active compound combinations was scored visually by comparing the treated plots to untreated control plots. During scoring, damage and development of all above-ground parts of plants was assessed. Scoring was carried out using a percentage scale (100% effect=all plants have died; 50% effect=50% of the plants and the green parts of the plants have died; 0% effect=no effect observed=like control plot). In each case, the mean score of 2-4 plots was calculated.
(§3) The results are shown in the table below; the effect of the individual application of active compounds (A+B) and C being stated in brackets.

[2] = test system: Triticum aestivum; format: in vivo; conditions: field trial, natural outdoor conditions; scored visually about 4 weeks after application vs untreated plots; mean of 2-4 plots; application rate g of active substance/hectare: A 5, B 25, C 50 (A + B 5 + 25; A + B + C 5 + 25 + 50)
Experimental: as §1, §2, §3

Structure (SMILES)	Veronica hederifolia % effect [1] [%]	Triticum aestivum % damage [2] [%]
COC(=O)c1ccc(I)cc1S(=O)(=O)[N-]C(=O)Nc1nc(C)nc(OC)n1.[Na+] [iodosulfuron-methyl-sodium]	15	1
O=C(Nc1ccc(F)cc1F)c1cccnc1Oc1cccc(C(F)(F)F)c1 [diflufenican, 2′,4′-difluoro-2-(α,α,α-trifluoro-m-tolyloxy)nicotinanilide]	40	0
CCCOc1nn(C(=O)[N-]S(=O)(=O)c2ccccc2C(=O)OC)c(=O)n1C.[Na+] [propoxycarbazone-sodium]	28	2
